Experimental data taken from US20040086901A1, “Database for analyzing gene function and method of analyzing gene function by dspa” (priority 2000, published 2004).

Experiments:
Format in all cases: cell-based, mouse
[1] = system: NIH3T3 cells overexpressing p16/INK4A; assay: MTT cell viability, p16/INK4A overexpressing cells vs parental line; conditions: p16/INK4A high-expressing cells / parental cell line, 3 to 4 days
Method: (§1) With regard to the function-known genes, the genes shown in the left column of Table 2 were used. With regard to the drugs, those shown in Table 1 were dissolved in DMSO to an extent of 100-fold of the maximum concentration for the search of the drugs and used. With regard to the cells, incubated NIH3T3 or ras-NIH3T3 cells were used.
(§2) Full-length cDNA of each function-known genes was incorporated into an expression vector (pRc-CMV, etc.) and transfected into NIH3T3 cells by a common method. Transformed cells were isolated using the resistance to G-418 as an index and the expression of the transfected gene in each cell was investigated by Western blotting method to select a highly expressing line.
(§3) Cell viabilities were measured according to the following procedures.
(§4) 1) From the 2nd to the 11th rows of a 96-well plate were filled with DMEM (50 μl). The 12th row was filled with 100 μl of DMEM.
(§5) 2) The 1st row was filled with 98 μl of DMEM.
(§6) 3) Drugs (2 μl each) were added into the 1st row.
(§7) 4) Continuous double-dilution was conducted from the 1st to the 9th rows. Fifty μl were taken out from the 9th row and discarded. The plate was preserved in a CO2 incubator.
(§8) 5) Cells (each high-expressing cells and the parental cell line) were detached from the medium using a trypsin solution, suspended in 10% CS-DMEM and transferred to a test tube and cell numbers (cell/ml) were counted.
(§9) 6) The cells were diluted to a concentration of 1×10^5 cells/ml, and 50 μl of the cell suspension were added to the 1st to the 11th rows of the plate followed by gently stirring.
(§10) 7) The plate was transferred to the CO2 incubator and incubated for 3 to 4 days.
(§11) 8) MTT (5 mg/ml in PBS) (10 μl) was added to the 1st to the 12th rows of the plate and incubated in the CO2 incubator at 37° C. for 4 hours.
(§12) 9) A reaction stop solution (0.04N HCl in isopropanol) (150 μl) was added followed by mixing well and being allowed to stand at room temperature for about 2 hours.
(§13) 10) Coloration of formazan which was a metabolite of the MTT dye was measured using a microplate reader. The measurement wavelength was 574 nm and the reference wavelength was 655 nm. The 10th and the 11th rows of the plate were 100% controls and the 12th row was a 0% control.
(§14) As an index for the sensitivity of highly gene-expressing cells and the parental cell line to various drugs, each of the IC40 values thereof was specified and ratios of the IC40 values were calculated. FIG. 2 and FIG. 3 are the examples where ratios of IC40 values were calculated from a curve showing the dependency on the concentration of the chemical versus the viability. After that, logarithmic values of ratios of IC40 values were calculated from each gene.

[2] = system: NIH3T3 cells overexpressing PDGF-R-Del; assay: MTT cell viability, PDGF-R-Del overexpressing cells vs parental line; conditions: PDGF-R-Del high-expressing cells / parental cell line, 3 to 4 days
Method: as §1, §2, §3, §4, §5, §6, §7, §8, §9, §10, §11, §12, §13, §14

[3] = system: NIH3T3 cells overexpressing calpastatin; assay: MTT cell viability, calpastatin overexpressing cells vs parental line; conditions: calpastatin high-expressing cells / parental cell line, 3 to 4 days
Method: as §1, §2, §3, §4, §5, §6, §7, §8, §9, §10, §11, §12, §13, §14

[4] = system: NIH3T3 cells overexpressing cAMP-PK-CS; assay: MTT cell viability, cAMP-PK-CS overexpressing cells vs parental line; conditions: cAMP-PK-CS high-expressing cells / parental cell line, 3 to 4 days
Method: as §1, §2, §3, §4, §5, §6, §7, §8, §9, §10, §11, §12, §13
(§15) As an index for the sensitivity of highly gene-expressing cells and the parental cell line to various drugs, each of the IC40 values thereof was specified and ratios of the IC40 values were calculated. […] After that, logarithmic values of ratios of IC40 values were calculated from each gene.

[5] = system: NIH3T3 cells, TPA (PKC downreg); assay: MTT cell viability, TPA (PKC downreg) cells vs parental line; conditions: 3 to 4 days
Method: as §1, §2, §3, §4, §5, §6, §7, §8, §9, §10, §11, §12, §13, §14

[6] = system: NIH3T3 cells overexpressing PKCepsilon-KN; assay: MTT cell viability, PKCepsilon-KN overexpressing cells vs parental line; conditions: 3 to 4 days
Method: as §1, §2, §3, §4, §5, §6, §7, §8, §9, §10, §11, §12, §13, §15

[7] = system: NIH3T3 cells overexpressing N-ras; assay: MTT cell viability, N-ras overexpressing cells vs parental line; conditions: N-ras high-expressing cells / parental cell line, 3 to 4 days
Method: as §1, §2, §3, §4, §5, §6, §7, §8, §9, §10, §11, §12, §13, §14

[8] = system: NIH3T3 cells overexpressing ERK-DN; assay: MTT cell viability, ERK-DN overexpressing cells vs parental line; conditions: ERK-DN high-expressing cells / parental cell line, 3 to 4 days
Method: as §1, §2, §3, §4, §5, §6, §7, §8, §9, §10, §11, §12, §13, §15

[9] = system: NIH3T3 cells overexpressing Bax; assay: MTT cell viability, Bax overexpressing cells vs parental line; conditions: 3 to 4 days
Method: as §1, §2, §3, §4, §5, §6, §7, §8, §9, §10, §11, §12, §13, §15

[10] = system: NIH3T3 cells overexpressing JNK-DN; assay: MTT cell viability, JNK-DN overexpressing cells vs parental line; conditions: JNK-DN high-expressing cells / parental cell line, 3 to 4 days
Method: as §1, §2, §3, §4, §5, §6, §7, §8, §9, §10, §11, §12, §13, §14

[11] = system: NIH3T3 cells overexpressing HNF4; assay: MTT cell viability, HNF4 overexpressing cells vs parental line; conditions: HNF4 high-expressing cells / parental cell line, 3 to 4 days
Method: as §1, §2, §3, §4, §5, §6, §7, §8, §9, §10, §11, §12, §13, §15

[12] = system: NIH3T3 cells overexpressing PDGF-R; assay: MTT cell viability, PDGF-R overexpressing cells vs parental line; conditions: PDGF-R high-expressing cells / parental cell line, 3 to 4 days
Method: as §1, §2, §3, §4, §5, §6, §7, §8, §9, §10, §11, §12, §13, §14

[13] = system: NIH3T3 cells overexpressing CBP8; assay: MTT cell viability, CBP8 overexpressing cells vs parental line; conditions: CBP8 high-expressing cells / parental cell line, 3 to 4 days
Method: as §1, §2, §3, §4, §5, §6, §7, §8, §9, §10, §11, §12, §13, §14

[14] = system: NIH3T3 cells overexpressing STAT1; assay: MTT cell viability, STAT1 overexpressing cells vs parental line; conditions: STAT1 high-expressing cells / parental cell line, 3 to 4 days
Method: as §1, §2, §3, §4, §5, §6, §7, §8, §9, §10, §11, §12, §13, §15

[15] = system: NIH3T3 cells overexpressing Ki-ras; assay: MTT cell viability, Ki-ras overexpressing cells vs parental line; conditions: Ki-ras high-expressing cells / parental cell line, 3 to 4 days
Method: as §1, §2, §3, §4, §5, §6, §7, §8, §9, §10, §11, §12, §13, §14

[16] = system: NIH3T3 cells overexpressing Gluco-corticoid-R; assay: MTT cell viability, Gluco-corticoid-R overexpressing cells vs parental line; conditions: Gluco-corticoid-R high-expressing cells / parental cell line, 3 to 4 days
Method: as §1, §2, §3, §4, §5, §6, §7, §8, §9, §10, §11, §12, §13, §15

[17] = system: NIH3T3 cells overexpressing CaMKIIa-Active; assay: MTT cell viability, CaMKIIa-Active overexpressing cells vs parental line; conditions: CaMKIIa-Active high-expressing cells / parental cell line, 3 to 4 days
Method: as §1, §2, §3, §4, §5, §6, §7, §8, §9, §10, §11, §12, §13, §14

[18] = system: NIH3T3 cells overexpressing m-calpain; assay: MTT cell viability, m-calpain overexpressing cells vs parental line; conditions: m-calpain high-expressing cells / parental cell line, 3 to 4 days
Method: as §1, §2, §3, §4, §5, §6, §7, §8, §9, §10, §11, §12, §13, §15

[19] = system: NIH3T3 cells overexpressing HSP4O; assay: MTT cell viability, HSP4O overexpressing cells vs parental line; conditions: HSP4O high-expressing cells / parental cell line, 3 to 4 days
Method: as §1, §2, §3, §4, §5, §6, §7, §8, §9, §10, §11, §12, §13, §14

[20] = PKCepsilon-KN (first of two lines) high-expressing cells / parental cell line
[21] = PKCepsilon-KN (second of two lines) high-expressing cells / parental cell line
[22] = Bax (first of two Bax lines) high-expressing cells / parental cell line
[23] = Bax (second of two Bax lines) high-expressing cells / parental cell line

Structure (SMILES) | logarithmic value of ratio of IC40 values [1] | logarithmic value of ratio of IC40 values [2] | logarithmic value of ratio of IC40 values [3] | logarithmic value of ratio of IC40 values [4] | logarithmic value of ratio of IC40 values [5] | logarithmic value of ratio of IC40 values [6, 20] | logarithmic value of ratio of IC40 values [6, 21] | logarithmic value of ratio of IC40 values [7] | logarithmic value of ratio of IC40 values [8] | logarithmic value of ratio of IC40 values [9, 22] | logarithmic value of ratio of IC40 values [9, 23] | logarithmic value of ratio of IC40 values [10] | logarithmic value of ratio of IC40 values [11] | logarithmic value of ratio of IC40 values [12] | logarithmic value of ratio of IC40 values [13] | logarithmic value of ratio of IC40 values [14] | logarithmic value of ratio of IC40 values [15] | logarithmic value of ratio of IC40 values [16] | logarithmic value of ratio of IC40 values [17] | logarithmic value of ratio of IC40 values [18] | also measured
COC(=O)[C@@]1(O)C[C@H]2O[C@]1(C)n1c3ccccc3c3c4c(c5c6ccccc6n2c5c31)C(=O)NC4 [K252a] | −0.22 | 0.10 | 0.1 | −0.04 | −0.13 | 0.00 | −0.09 | −0.16 | 0.05 | −0.11 | 0.60 | −0.28 | −0.22 | 0.10 | 0.28 | 0.15 | 0.15 | 0.13 | 0.10 | 0.13 | logarithmic value of ratio of IC40 values [19]: 0.07
O=c1c(-c2ccc(O)cc2)coc2cc(O)cc(O)c12 [Genistein, genistein] | 0.40 | 0.33 | 0.127 | 0.00 | −0.09 | 0.00 | 0.19 | 0.42 | 0.00 | 0.20 | 0.38 | −0.10 | −0.15 | 0.32 | 0.10 | 0.10 | 0.00 | 0.02 | 0.23 | 0.18 | logarithmic value of ratio of IC40 values [19]: 0.00
COc1ccc2c(c1)CC[C@@H]1[C@@H]2CC[C@]2(C)[C@@H](NCCCCCCN3C(=O)C=CC3=O)CC[C@@H]12 [U73122] | 0.28 | 0.00 | −0.313 | −0.18 | −0.12 | −0.21 | −0.38 | −0.54 | 0.00 | 0.00 | 0.00 | −0.07 | 0.00 | −0.11 | 0.18 | 0.18 | −0.60 | 0.05 | 0.00 | −0.14 | logarithmic value of ratio of IC40 values [19]: −0.20
